Measurements taken from PubChem BioAssay (NCI).
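Method: 48-hour compound exposure of cells in 96-well plates, five concentrations, linear interpolation of endpoints. GI50: concentration for 50% inhibition of growth. TGI: concentration producing complete growth inhibition.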

Key:
Experiment in all cases: NCI anticancer screen, dose series, 48 h
RXF 393 renal = system: RXF 393 renal
UACC-257 melanoma = system: UACC-257 melanoma
NCI-H460 lung = system: NCI-H460 lung
CAKI-1 renal = system: CAKI-1 renal
SK-OV-3 ovarian = system: SK-OV-3 ovarian
IGROV1 ovarian = system: IGROV1 ovarian
MDA-N = system: MDA-N
A549 NSCLC = system: A549 NSCLC
SNB-78 CNS = system: SNB-78 CNS
DLD-1 colon = system: DLD-1 colon

SMILES	TGI (RXF 393 renal) [µM]	TGI (UACC-257 melanoma) [µM]	TGI (NCI-H460 lung) [µM]	TGI (CAKI-1 renal) [µM]	TGI (SK-OV-3 ovarian) [µM]	TGI (IGROV1 ovarian) [µM]	TGI (MDA-N) [µM]	TGI (A549 NSCLC) [µM]	GI50 (RXF 393 renal) [µM]	GI50 (UACC-257 melanoma) [µM]	GI50 (CAKI-1 renal) [µM]	GI50 (SK-OV-3 ovarian) [µM]	GI50 (IGROV1 ovarian) [µM]	GI50 (A549 NSCLC) [µM]	TGI (SNB-78 CNS) [µM]	TGI (DLD-1 colon) [µM]	GI50 (NCI-H460 lung) [µM]	GI50 (SNB-78 CNS) [µM]	GI50 (DLD-1 colon) [µM]
O=[N+]([O-])c1ccc(/C=N/Nc2nc3ccccc3[nH]2)o1	28.2	> 100	> 100	28.7	> 100	26.7	31.7	30.4	–	–	–	–	–	–	–	–	–	–	–
O=C1c2cc(O)c(O)cc2O[C@H](c2ccc(O)c(O)c2)[C@H]1O	–	> 100	> 100	> 100	> 100	> 100	> 100	> 100	–	–	–	–	–	–	–	–	–	–	–
Oc1ccc(C(=C(Br)c2ccccc2)c2ccc(O)cc2)cc1	27.2	25.2	31.6	30.8	16.9	19.9	4.1	19.4	–	–	–	–	–	–	–	–	–	–	–
CN1C(=O)CC(=O)N1/C(=C/c1ccccc1)c1ccccc1	54.1	> 100	> 100	62.5	> 100	42.2	> 100	> 100	–	–	–	–	–	–	–	–	–	–	–
O=C1c2cc3c(cc2-c2c1c1ccc(Cl)cc1c(=O)n2C[C@H](O)CO)OCO3	0.126	0.604	–	0.192	1.66	> 100	–	0.72	0.0275	0.13	< 0.01	0.0444	0.135	0.0568	–	–	–	–	–
COC(=O)c1cc2c(cc1Cl)Sc1nnc(Nc3ccccc3)n1S2(=O)=O	5.96	21.7	23.8	7.23	19.4	2.68	–	26.9	–	–	–	–	–	–	–	–	–	–	–
O=C1c2ccccc2C(=O)c2[nH]cnc21	> 100	54.2	> 100	> 100	–	–	–	> 100	–	–	–	–	–	–	> 100	> 100	–	–	–
O=C(CSCC(=O)N/N=C/c1cccc(O)c1)N/N=C/c1cccc(O)c1	> 100	> 100	> 100	> 100	> 100	> 100	–	> 100	–	–	–	–	–	–	–	–	–	–	–
Cc1ccc(S(=O)(=O)N(CC(O)COc2ccccc2)c2c(F)cccc2F)cc1 (stereo not given)	26.1	44.5	31.6	33.8	41.3	–	31.4	40.1	–	–	–	–	–	–	–	–	–	–	–
CC(SC(=S)N1CCOCC1)C(=O)Nc1nnc(-c2ccc(Cl)cc2)o1 (stereo not given)	> 100	> 100	> 100	–	> 100	> 100	–	> 100	–	–	–	–	–	–	–	–	–	–	–
O=c1[nH]c2[nH]c(=S)[nH]c(=S)c2[nH]1	> 100	> 100	> 100	> 100	–	> 100	> 100	> 100	–	–	–	–	–	–	–	–	–	–	–
COc1ccc2nc3c(c(N)c2c1)C1CCC3C1(C)C (stereo not given)	81.5	40.5	> 100	> 100	> 100	> 100	–	> 100	–	–	–	–	–	–	–	–	–	–	–
COc1ccc(OC)c2sc(N3C(=O)/C(=C/c4cccc(Oc5ccccc5)c4)N=C3c3ccccc3)nc12	> 100	> 100	> 100	> 100	> 100	> 100	> 100	> 100	–	–	–	–	–	–	–	–	–	–	–
O=C1C(Cl)N(c2ccccc2Cl)C1c1c[nH]c2ccccc12 (stereo not given)	> 100	> 100	> 100	–	> 100	> 100	–	> 100	–	–	–	–	–	–	–	–	–	–	–
Cc1ccc(S(=O)(=O)OC2CC(C(C)(C)C)CCC2c2ccccc2)cc1 (stereo not given)	> 100	> 100	> 100	> 100	> 100	> 100	> 100	> 100	–	–	–	–	–	–	–	–	–	–	–
CCOC(=O)c1c2c(n(-c3ccc(C)cc3)c1C)-c1ccccc1C(=O)C2(C(=O)OCC)C(=O)OCC	75.2	> 100	98.5	> 100	> 100	> 87.7	–	> 100	–	–	–	–	–	–	–	–	–	–	–
C=C(C#N)C(=O)OCC(CC)CC.C=C(C#N)C(=O)OCC(CC)CC.CS(C)=O.CS(C)=O.Nc1c(N=Nc2ccc(-c3ccc(N=Nc4cc(S(=O)(=O)[O-])c5ccccc5c4N)cc3)cc2)cc(S(=O)(=O)[O-])c2ccccc12.[Pt+2]	51.1	31.8	> 100	53.7	> 100	> 100	–	> 100	19.5	17.4	20.4	97.9	29.4	> 86.8	> 95.6	> 77.8	44.4	38.8	28.2
COc1ccc2nc3cc(Cl)ccc3c(NC(C)CCCN(CCCl)CCCl)c2c1 (stereo not given)	4.9	14.9	1.58	13.9	6.59	7.11	–	7.04	–	–	–	–	–	–	7.38	4.1	–	–	–
CSCCC(C(=O)O)N(C)C (stereo not given)	> 100	> 100	> 100	> 100	> 100	> 100	> 100	> 100	–	–	–	–	–	–	–	–	–	–	–
